Reference: patent US20170246194A1, “Acetaminophen-Containing Analgesic Formulations With Reduced Hepatotoxicity” (Purdue Pharma L.P., priority 2014, published 2017)

What was measured:
male C3HeB/FeJ mice = test: Toxicity in mice: acetaminophen-induced liver injury, plasma ALT activity; format: in vivo; conditions: fasted mice; for protection of the liver against acetaminophen damage (maximal ALT elevation): cimetidine 20% and/or methionine 30% of the acetaminophen dose
Method: This example is performed as described in Saito, Hepatology, 51(1):246, 2010, which is incorporated by reference herein.
At selected times after acetaminophen treatment, groups of animals are killed by way of cervical dislocation under anesthesia. Blood is drawn from the vena cava into heparinized syringes and centrifuged. The plasma is used for determination of alanine aminotransferase (ALT) activities. Plasma ALT activities are determined and expressed as international units per liter.
After establishing the model in the pilot phase, five experimental groups are studied. The groups receive vehicles containing the ingredients noted in Table B. If the methionine or cimetidine is ineffective or is fully protective, the doses are adjusted and the experiment repeated until the relative contribution of each relative to the combination is determined.
The outcome is maximal ALT elevation. Data are expressed as the mean±standard error. Comparison between groups is performed analysis of variance, or alternative non-parametric procedures if the data is not normally distributed. P<0.05 is considered significant.

[1] = normally, in man; cited from earlier work
volunteers = conditions: human volunteers, given with acetaminophen 4 grams a day
Excerpt: All subjects participate in an initial multiple dose study of 1 gram of acetaminophen given four times a day (four grams a day), protected by twice a day transaminase determinations. […] Subjects with no elevation are terminated from the study. Subjects rest for three weeks after the first phase and then return for the second phase.
Subjects dose at 4 grams of acetaminophen a day. They have twice daily blood samples for serum transaminases, and proceed to the next day's dosing only if their most recent transaminase values are no more than 3 times the upper limit of normal.
The outcome variable is maximal transaminase elevations for each subject relative to baseline tested by ANOVA for each formulation. The test article is hepato-protective if there is a significant (P<0.05) difference in outcome for the formulation.
Subjects with transaminase elevations are followed at intervals to ensure that their values return to normal.

| Structure (SMILES) | liver injury (maximal ALT elevation) (male C3HeB/FeJ mice; acetaminophen alone, intraperitoneal single dose) | ingested dose metabolized to the non-toxic sulfate or glucuronide [1] [%] | protection of the liver against acetaminophen damage (maximal ALT elevation) (male C3HeB/FeJ mice) | serious adverse effects (volunteers) |
| --- | --- | --- | --- | --- |
| CC(=O)Nc1ccc(O)cc1 [acetaminophen, N-acetyl-p-aminophenol] | causes liver injury | 96 | – | – |
| CN/C(=N/CCSCc1nc[nH]c1C)NC#N [cimetidine] | – | – | protected against damage | no additional serious adverse effects |
| CSCC[C@H](N)C(=O)O [methionine] | – | – | protected against damage | no additional serious adverse effects |
